Data reported in publication PMC8445441, “Elucidating the mechanism by which synthetic helper peptides sensitize Pseudomonas aeruginosa to multiple antibiotics” (PLoS Pathogens, 2021).
Values joined by “and” are separate entries in the source; they are usually repeats but may differ in a detail not shown here. Equal entries are not always repeated. Where two headings read alike, the source gives them in different places.

Key:
[1] = tested on: clinical P. aeruginosa isolates; assay: microbe, parasite or virus in culture; settings: Pseudomonas aeruginosa, 18 h, antibiotic alone
Procedure, shortened: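 Broth microdilution per CLSI in MHB, two-fold drug dilutions mixed with an equal volume of bacteria at about 1 × 10^6 CFU/mL. After 18 h at 37 °C, MIC taken as the lowest concentration with no visible growth; run in triplicate.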

[2] = tested on: P. aeruginosa AUMC-Pa-1; settings: strain AUMC-Pa-1; antibiotic + D-11 (MICb/MICbc 128/4)
Procedure, shortened: (§1)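 Broth microdilution per CLSI in MHB: two-fold drug dilutions mixed with an equal volume of bacterial suspension at approximately 1 × 10^6 CFU/mL, incubated 18 h at 37 °C. MIC was the lowest concentration with no visible growth; triplicate runs.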

[3] = tested on: P. aeruginosa AUMC-Pa-2; settings: strain AUMC-Pa-2; antibiotic + D-11 (MICb/MICbc 64/4)
Procedure, shortened: as §1

[4] = tested on: P. aeruginosa AUMC-Pa-4; assay: microbe, parasite or virus in culture; settings: strain AUMC-Pa-4
Procedure, shortened: as §1

[5] = tested on: P. aeruginosa AUMC-Pa-6; assay: microbe, parasite or virus in culture; settings: strain AUMC-Pa-6
Procedure, shortened: as §1

[6] = tested on: P. aeruginosa AUMC-Pa-3; assay: microbe, parasite or virus in culture; settings: strain AUMC-Pa-3
Procedure, shortened: as §1

[7] = tested on: P. aeruginosa AUMC-Pa-5; assay: microbe, parasite or virus in culture; settings: strain AUMC-Pa-5
Procedure, shortened: as §1

[8] = tested on: P. aeruginosa PAO1; assay: microbe, parasite or virus in culture; settings: for MIC: Pseudomonas aeruginosa
Procedure, shortened: as §1

[9] = tested on: P. aeruginosa HM-214; settings: strain HM-214; antibiotic + D-11 (MICb/MICbc 128/4)
Procedure, shortened: as §1

[10] = tested on: P. aeruginosa PA14; assay: microbe, parasite or virus in culture; parameters: MICa: MIC of the antibiotic / MICac: MIC of the antibiotic in the combination: unit not given beside the values; settings: strain PA14
Procedure, shortened: as §1

[11] = tested on: P. aeruginosa ATCC27853; assay: microbe, parasite or virus in culture; parameters: MICa: MIC of the antibiotic / MICac: MIC of the antibiotic in the combination: unit not given beside the values; settings: strain ATCC27853
Procedure, shortened: as §1

[12] = tested on: P. aeruginosa NR-31041; assay: microbe, parasite or virus in culture; parameters: MICa: MIC of the antibiotic / MICac: MIC of the antibiotic in the combination: unit not given beside the values; settings: strain NR-31041
Procedure, shortened: as §1

[13] = tested on: P. aeruginosa NR-31040; assay: microbe, parasite or virus in culture; parameters: MICa: MIC of the antibiotic / MICac: MIC of the antibiotic in the combination: unit not given beside the values; settings: strain NR-31040
Procedure, shortened: as §1

[14] = tested on: P. aeruginosa PAK; assay: microbe, parasite or virus in culture; parameters: MICa: MIC of the antibiotic / MICac: MIC of the antibiotic in the combination: unit not given beside the values; settings: strain PAK
Procedure, shortened: as §1

[15] = antibiotic + D-11 (MICb/MICbc 128/4)
[16] = antibiotic alone, unit not given
[17] = with D-11 at MICbc 4, unit not given
[18] = antibiotic + D-11 (MICb/MICbc 64/4)

MIC ([1]; read-out: Antibiotic sensibility (MIC) of clinical P. aeruginosa isolate AUMC-Pa-1, strain AUMC-Pa-1): 128 µM | MIC ([1]; read-out: Antibiotic sensibility (MIC) of clinical P. aeruginosa isolate AUMC-Pa-2, strain AUMC-Pa-2): 128 µM | MIC ([1]; read-out: Antibiotic sensibility (MIC) of clinical P. aeruginosa isolate AUMC-Pa-3, strain AUMC-Pa-3): 128 µM | MIC ([1]; read-out: Antibiotic sensibility (MIC) of clinical P. aeruginosa isolate AUMC-Pa-4, strain AUMC-Pa-4): 128 µM | MIC ([1]; read-out: Antibiotic sensibility (MIC) of clinical P. aeruginosa isolate AUMC-Pa-5, strain AUMC-Pa-5): 128 µM | MIC ([1]; read-out: Antibiotic sensibility (MIC) of clinical P. aeruginosa isolate AUMC-Pa-6, strain AUMC-Pa-6): 128 µM | MIC ([1]; read-out: Antibiotic sensibility (MIC) of clinical P. aeruginosa isolate HM-214, strain HM-214): 128 µM | MIC ([1]; read-out: Antibiotic sensibility (MIC) of clinical P. aeruginosa isolate NR-31040, strain NR-31040): 128 µM | MIC ([1]; read-out: Antibiotic sensibility (MIC) of clinical P. aeruginosa isolate NR-31041, strain NR-31041): 128 µM | MICa: MIC of the antibiotic [4, 16]: 128 | MICac: MIC of the antibiotic in the combination [4, 17]: 32 | MICa: MIC of the antibiotic [5, 16]: 128 | MICac: MIC of the antibiotic in the combination [5, 17]: 32 | MICa: MIC of the antibiotic [6, 16]: 128 | MICac: MIC of the antibiotic in the combination [6, 17]: 8 | MICa: MIC of the antibiotic [7, 16]: 128 | MICac: MIC of the antibiotic in the combination [7, 17]: 32 | MIC ([8]; PAO1, read-out: MIC for azithromycin, azithromycin alone, PAO1): 128 µM | MIC ([8]; PAO1, read-out: MIC of AZM, initial bacterial density 10^3 CFU/mL): 64 µM | MIC ([8]; PAO1, read-out: MIC of AZM, initial bacterial density 10^4 CFU/mL): 64 µM | MIC ([8]; PAO1, read-out: MIC of AZM, initial bacterial density 10^5 CFU/mL): 128 µM | MIC ([8]; PAO1, read-out: MIC of AZM, initial bacterial density 10^6 CFU/mL): 128 µM | MICa: the MIC of antibiotics ([8]; S1 Table, macrolide alone, PAO1): 128 µM | MICa: the MIC of azithromycin ([8]; azithromycin alone, PAO1, broth microdilution in MHB, 18 h, 37 °C, triplicate): 128/128 μM and 128 μM | MICa: MIC of the antibiotic [10, 16]: 128 | MICac: MIC of the antibiotic in the combination [10, 17]: 32 | MICa: MIC of the antibiotic [11, 16]: 128 | MICac: MIC of the antibiotic in the combination [11, 17]: 4 | MICa: MIC of the antibiotic [12, 16]: 128 | MICac: MIC of the antibiotic in the combination [12, 17]: 16 | MICa: MIC of the antibiotic [13, 16]: 128 | MICac: MIC of the antibiotic in the combination [13, 17]: 32 | MICa: MIC of the antibiotic [14, 16]: 128 | MICac: MIC of the antibiotic in the combination [14, 17]: 16
SMILES: CC[C@H]1OC(=O)[C@H](C)[C@@H](O[C@H]2C[C@@](C)(OC)[C@@H](O)[C@H](C)O2)[C@H](C)[C@@H](O[C@@H]2O[C@H](C)C[C@H](N(C)C)[C@H]2O)[C@](C)(O)C[C@@H](C)CN(C)[C@H](C)[C@@H](O)[C@]1(C)O [Azithromycin]
FICI [2]: 0.094 | FICI [3]: 0.313 | FICI [4, 15]: 0.281 | FICI [5, 18]: 0.313 | FICI [6, 15]: 0.094 | FICI [7, 18]: 0.313 | FICI [9]: 0.281 | FICI [10, 15]: 0.281 | FICI ([11]; antibiotic + D-11 (MICb/MICbc 32/4)): 0.156 | FICI [12, 18]: 0.188 | FICI [13, 15]: 0.281 | FICI [14, 18]: 0.188
